Legend:
Format in all cases: cell-based
[1] = tested on: SDOV3 cells (an ovarian cancer cell line); experiment: Detection of ovarian cancer cells: absorption and intracellular deacylation to a fluorescent structure, fluorescence microscopy; settings: folate-free medium (no FBS), washed with HBSS, 20× immersion objective
Method: Compound 24 and comparative compound A were evaluated for their ability to be absorbed by cancer cells and then, in the case of compound 24, deacylated by intracellular esterases so as to regenerate a fluorescent structure. Specifically, approximately 500,000 SDOV3 cells (an ovarian cancer cell line) were seeded into separate 35 mm culture dishes containing a folate-free growth medium (RPMI+10% FBS). The next day, the medium was replaced with a folate-free medium (no FBS). In one culture dish, the medium was supplemented with 25 micromolar of compound 24; and, in another culture dish, the medium was supplemented with 50 micromolar of comparative compound A. After incubation, the cells were washed with HBSS (Hank's balanced salt solution) to remove unbound compound. The cells were then imaged with a 20× immersion objective on a standard upright fluorescent microscope. […] FIG. 1 illustrates a picture showing the fluorescence generated. Note that only the cancer cells evidenced fluorescence and that the solution remained non-fluorescent. […] This evidences that that composition was not suitable for use in the methods described herein.

[2] = target: T1, folate binding protein (folate receptor) on SKOV3 cells (Homo sapiens, UniProt P15328); experiment: Folate competition: labeling of ovarian cancer cells via the folic acid receptor; settings: 10 μM compound alone vs 10 μM + 1 mM folate (100×)
T1 construct: endogenous in cells; host or cells: SKOV3 cells
T1 sequence (P15328 25-234): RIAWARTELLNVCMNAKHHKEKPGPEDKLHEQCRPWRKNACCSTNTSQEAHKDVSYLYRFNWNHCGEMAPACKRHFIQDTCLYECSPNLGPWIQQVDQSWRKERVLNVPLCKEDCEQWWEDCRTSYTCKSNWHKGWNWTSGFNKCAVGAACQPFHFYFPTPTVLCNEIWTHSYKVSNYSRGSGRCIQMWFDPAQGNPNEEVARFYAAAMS
Method: This example establishes that compound 24 is specific for the folate receptor. Specifically, compound 24 was used in a folate free medium and in a medium using excess folate that competed with compound 24. The rationale is that in the presence of excess folate, compound 24 would have to compete for binding to the folate binding protein and therefore there would be less signal than when compound 24 was the sole source of folate.
To test this hypothesis, SKOV3 cells were incubated with 10 μM of compound 24 or with 10 μM of compound 24+1 mM folate (100×s). Cells were then washed and imaged as before.
All images were analyzed using exactly the same parameters. Mean intensity was measured from identical regions with in each image. […] These images establish that compound 24 binds to cells through the folate binding protein and not by some other route.

[3] = tested on: MCF7 cells, a breast cancer cell line that expresses folate binding protein; experiment: Labeling of MCF7 cells (correlation between folic acid receptors and fluorescence intensity); settings: MCF cells, 10 uM, one hour, folate-free RPMI, no FBS
Method: In this experiment, the procedures set forth above were repeated with the exception that SKOV3 cells were replaced with MCF7 cells—a breast cancer cell line that expresses folate binding protein albeit at a level lower than that of the SKOV3 cells. […] However, the fluorescent intensity generated by the MCF7 cells was less than that generated by SKOV3 cells.
Specifically, MCF cells were labeled at 10 uM with compound 24 for one hour in folate-free RPMI, no FBS. Cells were washed and imaged.

SKOV3 cells = experiment: Dose response of fluorescence generated in SKOV3 cells; settings: 1 hour; for Mean intensity: SKOV3 cells, RPMI + 0.25% BSA, image J
Method: This experiment establishes that compound 24 provides a dose response relative to the fluorescence generated. Specifically, SKOV3 cells were incubated with 10 μM, 25 μM, or 50 μM of compound 24 in RPMI supplemented with 0.25% BSA. Cells were incubated for 1 hour then washed with HBSS and imaged as before.
All images were analyzed using exactly the same parameters using the image J software suite. Mean intensity was measured from identical regions with in each image. […] While BSA was used as a supplement, acylated BSA may be more practical.

## Nc1nc2ncc(CNc3ccc(C(=O)NC(CCC(=O)NCCCCCNC(=O)c4cccc(-c5c6ccc(=O)cc-6oc6cc(O)ccc56)c4C(=O)O)C(=O)O)cc3)nc2c(=O)[nH]1 (centres unmarked) [comparative compound A, reference compound]
[1]; 50 micromolar
  fluorescent signal of cancer cells after incubation: showed a burst of fluorescence but immediately the fluorescence was bleached

## O,O′-(5-(3-(4-((4-(4-(((2-amino-4-oxo-3,4-dihydropteridin-6-yl)methyl)amino)benzamido)-5-methoxy-5-oxopentanamido)methyl)phenyl)thioureido)-3-oxo-3H-spiro[isobenzofuran-1,9′-xanthene]-3′,6′-diyl) bis)(2-methoxyethyl) Disuccinate [compound 24]
[2]
  competition by excess folate for labeling ovarian cancer cells: folate competes with compound 24
[3]
  labeling of cells (fluorescence): labeling is faint
[1]; 25 micromolar
  fluorescent signal of cancer cells after incubation: clear, consistent and unambiguous
SKOV3 cells; 10 μM
  Mean intensity: 312.8
SKOV3 cells; 25 μM
  Mean intensity: 360.4
SKOV3 cells; 50 μM
  Mean intensity: 545.5
SKOV3 cells; SKOV3 cells, 10, 25, 50 μM
  dose response in labeling cells: clear dose response

— patent US10890588B2, “Compositions and methods for detecting cancer cells in a tissue sample” (ISI Life Sciences, Inc., priority 2016, dated 2021)
